Values of other authors as cited in patent publication US20230321590A1, “AQUEOUS LIQUID SORBENT” (COMPACT CARBON CAPTURE AS, priority 2020, published 2023).

Conditions: literature values

Structure (SMILES): C1CNCCN1 [Piperazine]
- Reaction rate constant at 25° C.: 53700 m^3kmol^−1s^−1

Structure (SMILES): CC(C)(N)CO [2-amino-2-methyl-1-propanol (AMP), 2-amino-2-methyl-1-propanol]
- Reaction rate constant at 25° C.: 810 m^3kmol^−1s^−1

Structure (SMILES): NCCOCCO [Diglycolamine (DGA), Diglycolamine]
- Reaction rate constant at 25° C.: 6663 m^3kmol^−1s^−1

Structure (SMILES): OCCNCCO [Diethanolamine (DEA), Diethanolamine]
- Reaction rate constant at 25° C.: 2375 m^3kmol^−1s^−1

Structure (SMILES): CC(O)CNCC(C)O (stereo not drawn) [Diisopropanolamine (DIPA), Diisopropanolamine]
- Reaction rate constant at 25° C.: 2585 m^3kmol^−1s^−1

Structure (SMILES): NCCO [Monoethanolamine (MEA), Monoethanolamine]
- Reaction rate constant at 25° C.: 7000 m^3kmol^−1s^−1
